Like-named read-outs stand apart in the source and are kept apart here.
Experiments:
[1] = tested on: MCF-7 breast cancer cell line; assay: MTT cytotoxicity assay, MCF-7; format: cell-based, human
Description: (§1) The newly synthesized compounds were evaluated for their in vitro anticancer potential against MCF-7 breast cancer cell lines by MTT assay using cisplatin as a reference standard. The 50% inhibitory concentration (IC50) values were determined for these compounds. In addition, the cytotoxic activities of compounds 5c, 5e, 5k, and 5m were assessed against healthy NIH3T3 [25] cells, in order to express the selectivity toward carcinogenic cells. The IC50 values of test compounds were determined as the mean IC50 of 4 independent experiments.
(§2) The anticancer activity of compounds 5a–5p were screened according to the MTT assays. The MTT assays were performed as previously described. Cisplatin was used as the reference drug for the MCF7 cell line in the MTT assays.

NIH3T3 cells = assay: MTT cytotoxicity assay, healthy NIH3T3 cells; format: cell-based
Description: as §1, §2

[2] = molecular target: T1, recombinant human aromatase (Homo sapiens, UniProt P11511); assay: Fluorometric aromatase (CYP19A) inhibitor screening kit (Bio Vision); format: biochemical; conditions: read-out: IC50 Aromatase Inhibition
T1 construct: purchased Bio Vision
T1 sequence (P11511 1-503): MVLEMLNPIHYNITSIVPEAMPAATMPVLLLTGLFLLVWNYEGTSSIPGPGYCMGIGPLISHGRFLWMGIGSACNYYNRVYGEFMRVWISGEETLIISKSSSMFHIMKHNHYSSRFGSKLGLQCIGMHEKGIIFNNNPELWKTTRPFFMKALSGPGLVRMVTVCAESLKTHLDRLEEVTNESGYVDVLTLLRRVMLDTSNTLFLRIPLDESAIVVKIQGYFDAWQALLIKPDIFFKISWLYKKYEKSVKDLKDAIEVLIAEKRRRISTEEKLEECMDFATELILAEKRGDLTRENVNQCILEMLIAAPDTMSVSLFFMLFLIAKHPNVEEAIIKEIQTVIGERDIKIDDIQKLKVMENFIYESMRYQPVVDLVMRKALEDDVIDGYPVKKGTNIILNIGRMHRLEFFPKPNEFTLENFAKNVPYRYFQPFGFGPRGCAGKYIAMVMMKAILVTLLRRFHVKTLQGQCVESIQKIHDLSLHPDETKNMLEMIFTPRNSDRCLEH

[3] = fluorometric kit, letrozole as reference

Compound: Fc1ccc(C2=Nn3c(nnc3-c3ccc(-c4nc5cc(Cl)ccc5[nH]4)cc3)SC2)cc1 [Compound 5k, 3-(4-(5-chloro-1H-benzo[d]imidazol-2-yl)phenyl)-6-(4-fluorophenyl)-7H-[1,2,4]triazole [3,4-b][1,3,4] thiadiazine]
- IC50 ([1]; n = 4): 0.11 ± 0.005 µM
- IC50 (NIH3T3 cells; n = 4): 77.6 ± 2.1 µM
- IC50 [2, 3]: 2.28 ± 0.106 µM

Compound: N#Cc1ccc(C2=Nn3c(nnc3-c3ccc(-c4nc5cc(Cl)ccc5[nH]4)cc3)SC2)cc1 [Compound 5m, 3-(4-(5-chloro-1H-benzo[d]imidazol-2-yl)phenyl)-6-(4-cyanophenyl)-7H-[1,2,4]triazole [3,4-b][1,3,4] thiadiazine]
- IC50 ([1]; n = 4): 0.018 ± 0.001 µM
- IC50 (NIH3T3 cells; n = 4): ≥ 1000 µM
- IC50 [2, 3]: 1.56 ± 0.064 µM

Compound: Cc1ccc(C2=Nn3c(nnc3-c3ccc(-c4nc5cc(Cl)ccc5[nH]4)cc3)SC2)cc1 [Compound 5l, 3-(4-(5-chloro-1H-benzo[d]imidazol-2-yl)phenyl)-6-(4-methylphenyl)-7H-[1,2,4]triazole [3,4-b][1,3,4] thiadiazine]
- IC50 ([1]; n = 4): 0.352 ± 0.019 µM

Compound: Fc1ccc(C2=Nn3c(nnc3-c3ccc(-c4nc5ccccc5[nH]4)cc3)SC2)c(F)c1 [Compound 5g, 3-(4-(1H-benzo[d]imidazol-2-yl)phenyl)-6-(2,4-difluorohenyl)-7H-[1,2,4]triazole [3,4-b][1,3,4] thiadiazine]
- IC50 ([1]; n = 4): 0.245 ± 0.004 µM

Compound: c1ccc(C2=Nn3c(nnc3-c3ccc(-c4nc5ccccc5[nH]4)cc3)SC2)cc1 [Compound 5a, 3-(4-(1H-benzo[d]imidazol-2-yl)phenyl)-6-phenyl-7H-[1,2,4]triazole[3,4-b][1,3,4] thiadiazine]
- IC50 ([1]; n = 4): 0.142 ± 0.007 µM

Compound: Clc1ccc(C2=Nn3c(nnc3-c3ccc(-c4nc5ccccc5[nH]4)cc3)SC2)c(Cl)c1 [Compound 5h, 3-(4-(1H-benzo[d]imidazol-2-yl)phenyl)-6-(2,4-dichlorophenyl)-7H-[1,2,4]triazole[3,4-b] [1,3,4] thiadiazine]
- IC50 ([1]; n = 4): 0.342 ± 0.017 µM

Compound: Clc1ccc2[nH]c(-c3ccc(-c4nnc5n4N=C(c4ccc(Br)cc4)CS5)cc3)nc2c1 [Compound 5n, 3-(4-(5-chloro-1H-benzo[d]imidazol-2-yl)phenyl)-6-(4-bromophenyl)-7H-[1,2,4]triazole [3,4-b][1,3,4] thiadiazine]
- IC50 ([1]; n = 4): 0.264 ± 0.011 µM

Compound: N#Cc1ccc(C2=Nn3c(nnc3-c3ccc(-c4nc5ccccc5[nH]4)cc3)SC2)cc1 [Compound 5e, 3-(4-(1H-benzo[d]imidazol-2-yl)phenyl)-6-(4-cyanophenyl)-7H-[1,2,4]triazole[3,4-b][1,3,4] thiadiazine]
- IC50 ([1]; Homo sapiens, MCF7, n = 4): 0.016 ± 0.001 µM
- IC50 (NIH3T3 cells; Mus musculus, NIH3T3, n = 4): ≥ 1000 µM
- IC50 [2]: 0.032 ± 0.001 µM
- melting point: 259.3 to 263.1 °C

Compound: N.N.[Cl][Pt][Cl] [Cisplatin, reference compound]
- IC50 ([1]; n = 4): 0.02 ± 0.009 µM
- IC50 (NIH3T3 cells; n = 4): ≥ 1000 µM

Compound: Cc1ccc(C2=Nn3c(nnc3-c3ccc(-c4nc5ccccc5[nH]4)cc3)SC2)cc1 [Compound 5d, 3-(4-(1H-benzo[d]imidazol-2-yl)phenyl)-6-(4-methylphenyl)-7H-[1,2,4]triazole[3,4-b][1,3,4] thiadiazine]
- IC50 ([1]; n = 4): 0.194 ± 0.006 µM

Compound: Clc1ccc(C2=Nn3c(nnc3-c3ccc(-c4nc5cc(Cl)ccc5[nH]4)cc3)SC2)c(Cl)c1 [Compound 5p, 3-(4-(5-chloro-1H-benzo[d]imidazol-2-yl)phenyl)-6-(2,4-dichlorophenyl)-7H-[1,2,4]triazole [3,4-b][1,3,4] thiadiazine]
- IC50 ([1]; n = 4): 0.147 ± 0.001 µM

Compound: Fc1ccc(C2=Nn3c(nnc3-c3ccc(-c4nc5ccccc5[nH]4)cc3)SC2)cc1 [Compound 5c, 3-(4-(1H-benzo[d]imidazol-2-yl)phenyl)-6-(4-fluorophenyl)-7H-[1,2,4]triazole[3,4-b][1,3,4] thiadiazine]
- IC50 ([1]; n = 4): 0.119 ± 0.005 µM
- IC50 (NIH3T3 cells; n = 4): 81.8 ± 2.4 µM
- IC50 [2, 3]: 1.72 ± 0.042 µM

Compound: Clc1ccc2[nH]c(-c3ccc(-c4nnc5n4N=C(c4ccccc4)CS5)cc3)nc2c1 [Compound 5i, 3-(4-(5-chloro-1H-benzo[d]imidazol-2-yl)phenyl)-6-phenyl-7H-[1,2,4]triazole[3,4-b][1,3,4] thiadiazine]
- IC50 ([1]; n = 4): 0.205 ± 0.005 µM

Compound: Fc1ccc(C2=Nn3c(nnc3-c3ccc(-c4nc5cc(Cl)ccc5[nH]4)cc3)SC2)c(F)c1 [Compound 5o, 3-(4-(5-chloro-1H-benzo[d]imidazol-2-yl)phenyl)-6-(2,4-difluorohenyl)-7H-[1,2,4]triazole [3,4-b][1,3,4] thiadiazine]
- IC50 ([1]; n = 4): 0.373 ± 0.011 µM

Compound: Clc1ccc(C2=Nn3c(nnc3-c3ccc(-c4nc5cc(Cl)ccc5[nH]4)cc3)SC2)cc1 [Compound 5j, 3-(4-(5-chloro-1H-benzo[d]imidazol-2-yl)phenyl)-6-(4-chlorophenyl)-7H-[1,2,4]triazole [3,4-b][1,3,4] thiadiazine]
- IC50 ([1]; n = 4): 0.258 ± 0.011 µM

Compound: Brc1ccc(C2=Nn3c(nnc3-c3ccc(-c4nc5ccccc5[nH]4)cc3)SC2)cc1 [Compound 5f, 3-(4-(1H-benzo[d]imidazol-2-yl)phenyl)-6-(4-bromophenyl)-7H-[1,2,4]triazole[3,4-b][1,3,4] thiadiazine]
- IC50 ([1]; n = 4): 0.318 ± 0.019 µM
